The values that follow come from the RepoRT retention time repository.

The data set is described as follows: Agilent ZORBAX 300 SB-C18, 150 × 1 mm, 3.5 µm; A: water + 0.01% heptafluorobutyric acid; B: acetonitrile + 0.01% heptafluorobutyric acid; gradient (min/%B) 0/0 100/90. The note with it: stereoisomer not certain.
As for `CC(=O)C=Cc1ccccc1`, the LC retention time worked out at 11.8 min.

For the compound `CN(C)c1ccc(C(=O)N2CCCC2)cc1`, the LC retention time turned out to be 10.4 min. For `CC[N+](CC)(CC)Cc1ccccc1` the value was 8.32 min. As for `CC(C)C1CN(Cc2ccco2)CCN1` (stereo not drawn), the LC retention time was found to be 7.94 min. The result for `Nc1ncccn1` reads 5.83 min; that for `CN(C)c1ccc(N=C2C=CC(=Nc3ccc(N(C)C)cc3)C=C2)cc1`, 9.47 min. The result for `CCN(CC)CCCO` reads 6.01 min; that for `CCCCCCCN1C(=O)c2ccccc2C1(O)Cc1ccccc1` (stereo not drawn), 16.8 min. `COC(=O)c1ccc(NC(=O)Cn2nc(C)c3ccccc3c2=O)cc1`: the LC retention time was 11.9 min. The result for `CC1CCCN1` (stereo not drawn) reads 5.96 min; that for `CCN1CC(CCN2CCOCC2)C(c2ccccc2)(c2ccccc2)C1=O` (stereo not drawn), 9.72 min. On to `Cc1ccc2c(c1)C1CN(C)CCC1N2C(=O)CCCCCN1C(=O)c2ccccc2C1=O` (stereo not drawn), for which the LC retention time worked out at 10.6 min.

Consider `CC(=O)NNc1nc(C)cc(C)n1`, for which the LC retention time turned out to be 6.5 min.

As to `O=C1CCC=C1CSc1ccccc1`, the LC retention time was 13.1 min. Regarding `CCCCCCCCCCN(C)C`, the LC retention time came to 12 min. As for `COc1cccc(C=NNC(=O)c2ccccc2)c1OC`, the LC retention time was found to be 11.7 min.

Turning to `CCCNC(=O)c1c[nH]c2ccccc12`, the LC retention time was determined as 9.96 min. On to `COc1ccc(C2=C(N)C(=O)NC2=O)cc1OC`, for which the LC retention time stood at 8.69 min. For `COc1ccc2c(c1)C(C)CC(C)(C)N2` (stereo not drawn) the value was 9.43 min; for `Cc1ccccc1C(=O)NC1CC(C)(C)NC(C)(C)C1`, 8.46 min; for `O=C(NCCNC(=O)c1ccccn1)c1ccccn1`, 8.71 min. Consider `CCCc1cc(C(=O)O)ccn1`, for which the LC retention time is 6.01 min. The result for `CCOc1ccc(C(=O)NNC(=O)COc2ccc(C(C)CC)cc2)cc1` (stereo not drawn) reads 15 min. The result for `COC(=O)Cc1ccc(N)cc1N` reads 7.24 min. For the compound `Cc1ccc(C(=O)Nc2ccc3[nH]c4c(c3c2)CCCC4)cc1`, the LC retention time was 15.1 min. For `Cc1cc(=O)[nH]c2c(C)c(N)ccc12`, the LC retention time worked out at 8.42 min. The result for `O=C1NCCO1` reads 2.05 min; that for `CCOC(=O)C=CC(=O)NNC(=O)CCC(=O)Nc1ccc(C)cc1C`, 10.1 min; that for `CC(=O)Nc1nc(=S)n(-c2ccccc2)[nH]1`, 9.02 min.

Consider `CC(C)(C)c1ccc(-c2cc(C(=O)O)c3c(ccc4ccccc43)n2)cc1`, for which the LC retention time worked out at 16.4 min.

On to `NCCCCCCNCCCCCCN`, for which the LC retention time was 7.37 min. With `CC(=O)Nc1ccc(CCC(=O)O)cc1`, the LC retention time came out at 7.92 min.

In the case of `CCc1ncc(C)[nH]1`, the LC retention time came out at 6.62 min. For `Cc1cccc(N)c1N` the value was 7.32 min; for `Oc1cccc(-c2cc(-c3ccccc3)c3c(ccc4ncccc43)n2)c1`, 13.7 min. For `Cc1cc[n+](CCC(=O)O)c2ccccc12` the value was 7.41 min; for `C[N+](C)(C)CCOC(=O)c1ccccc1`, 8.36 min; for `NNc1cccc2ncccc12`, 8.48 min.

As for `CC1Cc2ccccc2N1` (stereo not drawn), the LC retention time came to 7.66 min. In the case of `CC(CC(=O)Nc1ccc(Nc2ccccc2)cc1)=NNC(=O)Cc1ccccc1`, the LC retention time was 13.1 min. With `CC1=NCC(=O)N1c1cccc(N)c1`, the LC retention time amounted to 7.1 min. For `CCCCCCCCCC(=O)N(C)C` the value was 16.6 min. On to `c1ccc(CCn2c(-c3ccccc3)csc2=Nc2ccccc2)cc1`, for which the LC retention time is 13.8 min.

With `CC(C)(C)Nc1ncnc2ccccc12`, the LC retention time was determined as 9.02 min. Turning to `CCn1c2ccccc2c2cc(C=NNC(=O)c3ccc(C)cc3)ccc21`, the LC retention time amounted to 15.7 min. The result for `NC(=O)CNC(=O)c1ccc2ccccc2n1` reads 8.66 min; that for `CC(C)NC(=O)c1ccc2ccccc2n1`, 13.1 min; that for `CCC(C)C(NC(=O)C1CCCN1)C(=O)O` (stereo not drawn), 7.86 min. The result for `CNCCOC` reads 4.63 min. For `Cc1cc(C)c(NC(=O)Nc2ccccc2)c(C)n1` the value was 8.82 min; for `CN1CC(C(=O)O)CC1=O` (stereo not drawn), 3.04 min; for `O=C(CCC1CCCC1)N1CCN(C(=O)COc2ccccc2)CC1`, 13.7 min. As for `Cn1cnnc1-c1ccncc1`, the LC retention time amounted to 6.08 min. The result for `CCC(NC)c1ccccc1OC` (stereo not drawn) reads 9.09 min; that for `CCCCCCCCCCCCC(N)=O`, 18.2 min; that for `CC(=O)c1c(C(C)=O)c(C)n(C)c1C`, 8.65 min. For `CN(CCCN)CCCN` the value was 7.45 min; for `O=C(O)C1Cc2ccccc2CN1C(=O)c1ccccc1` (stereo not drawn), 11.2 min. The result for `CC(=O)Nc1ccc(CC(C(=O)O)c2ccccc2)cc1` (stereo not drawn) reads 10.6 min; that for `Cc1ccccc1N`, 7.59 min; that for `CN(C)CCN(C)C`, 7.04 min. As for `Cc1ccc(NC(=O)c2c(C)[nH]c(C)c2C)c(C)c1`, the LC retention time worked out at 13.2 min. For `OCc1cccnc1-c1ncccc1CO` the value was 6.38 min; for `O=C(O)C1Cc2ccccc2CN1` (stereo not drawn), 6.54 min; for `CN(C(=O)CCCN1C(=O)c2ccccc2C1=O)C1CC(C)(C)N(C)C(C)(C)C1`, 9.02 min. For the compound `Cc1[nH]c(=S)[nH]c1-c1ccccc1`, the LC retention time was 9.06 min. `CC1(C)CC(NC(=S)NC2CCCCC2)CC(C)(C)N1`: the LC retention time was found to be 9.89 min. With `Cc1ccc2nc(C)cc(C(=O)O)c2c1`, the LC retention time worked out at 6.16 min. For `COC(C)C(N)=O` (stereo not drawn) the value was 2.9 min; for `Cc1ccc(C=C2C(=O)c3ccccc3C2=O)o1`, 15.1 min; for `CC1(N)CCC(C(C)(C)N)CC1` (stereo not drawn), 7.19 min.

Consider `COc1ccc(CCN2C(=O)C(C)C(Cc3ccc(C)cc3)C2=O)cc1OC` (stereo not drawn), for which the LC retention time was 15.9 min.

With `CC(C)(N)CO`, the LC retention time worked out at 4.39 min.

With `O=C1C(=Cc2cccs2)CCCC1=Cc1cccs1`, the LC retention time came out at 18.5 min.

In the case of `CC(=O)c1ccc(-n2cccc2)cc1`, the LC retention time is 13.2 min. The result for `O=C(O)Cc1c(C(=O)O)[nH]c2cc(C(=O)O)ccc12` reads 7.47 min. The result for `CCCCCCCCCCn1c(CCC)nc2ccccc21` reads 15.6 min; that for `Cc1ccccc1C=NNC(=O)C(O)(c1ccccc1)c1ccccc1`, 14.5 min; that for `CC1C2=C(CC(C)(C)CC2=O)NC2=C1C(=O)CC(C)(C)C2`, 10.9 min. Turning to `NCCCCCCN`, the LC retention time stood at 6.78 min. For `CC(C)(C)c1ccc(-c2nc3ccccc3s2)cc1` the value was 21.3 min; for `CC1NCCC2(O)CCCCC12` (stereo not drawn), 7.09 min; for `CC(C)(C)NCC(O)COc1nsnc1N1CCOCC1` (stereo not drawn), 9.09 min. The result for `C1CCC(OCCN2CCN(CCOC3CCCCC3)CC2)CC1` reads 10.9 min; that for `NCc1ccc2ncccc2c1`, 7.05 min; that for `N=C(N)c1ccc(N)cc1`, 6.62 min. Regarding `O=C1C(=Cc2ccco2)C(=O)c2ccccc21`, the LC retention time was 14 min. The result for `NC(CC(=O)O)c1ccccc1` (stereo not drawn) reads 5.59 min. Consider `COc1ccc(C=CC(=O)c2ccccc2)cc1OC`, for which the LC retention time turned out to be 14.5 min.

With `NC1CCCCC1N` (stereo not drawn), the LC retention time was 7.01 min.

Take `O=C(O)CCn1c2c(c3ccccc31)CCCC2`: the LC retention time is 14.3 min.

As for `COCc1cc(=O)n2[nH]c(NC(C)=O)nc2n1`, the LC retention time amounted to 6.11 min. With `O=c1cc[nH]c(=O)[nH]1`, the LC retention time came to 1.47 min.

For the compound `O=C1C=CC(=O)N1c1ccc(N2CCCCC2)cc1`, the LC retention time was 9.22 min. For `O=C(C=Cc1ccccc1O)c1ccccc1O`, the LC retention time stood at 14.5 min.

As to `O=C1NCCCC1C(=O)N1CCN(C(=O)c2ccco2)CC1` (stereo not drawn), the LC retention time was found to be 7.34 min. For `Cc1nc2c(ccc3ccccc32)c(C)c1C` the value was 10.9 min.

As to `COc1cc(CNC(=O)Nc2ccccc2)cc(OC)c1OC`, the LC retention time came out at 11.3 min. As for `c1cc(C2=NC(c3ccncc3)C(c3ccncc3)N2)ccn1` (stereo not drawn), the LC retention time is 7.12 min. With `O=C(O)CC1C(=O)Nc2ccccc21` (stereo not drawn), the LC retention time came out at 7.72 min. The result for `CC(C)(C)c1ccc(-c2nnnn2-c2ccccc2)cc1` reads 16.8 min; that for `Oc1ccc2c(c1)C13CCCCC1(O)C(C2)NCC3` (stereo not drawn), 8.57 min; that for `CCN(Cc1ccncc1)C(=S)Nc1ccccc1`, 8.91 min.

On to `CCN1CCNCC1`, for which the LC retention time came out at 6.67 min. `Cc1c(-c2nc3ccccc3[nH]2)cnn1C`: the LC retention time came out at 8.16 min. As for `NC(=O)c1cc(O)c(O)c(O)c1`, the LC retention time stood at 2.23 min. Consider `CC(=CCc1ccccc1)N=Nc1nc(=S)[nH][nH]1`, for which the LC retention time amounted to 10.6 min.

Take `CC=CC=CC(=O)Nc1ccc(C=CC(=O)c2ccccc2)cc1`: the LC retention time was determined as 15.7 min.

For the compound `c1cncc(-c2nc3ccccc3[nH]2)c1`, the LC retention time was found to be 8.19 min.

Take `OCCCc1cn(-c2ccccc2)c2ccccc12`: the LC retention time is 14.8 min.

As to `Cc1ccc2[nH]c(-c3cc[n+](C)cc3)cc2c1`, the LC retention time was determined as 9.82 min. For `Cn1c(=N)n(CC(=O)c2ccccc2)c2ccccc21` the value was 10 min; for `O=C1CCCN1CP(=O)(O)CCc1ccccc1`, 7.26 min.
